# Experimental data from patent US11718628B2, “SREBP inhibitors comprising a 6-membered central ring” (Capulus Therapeutics, LLC, priority 2018, dated 2023).
# Assays:
# HepG2 cells = experiment: Gene expression of HepG2 cells (quantitative PCR); type: cell-based; set-up: key to LSS gene expression / MVK gene expression / SREBP1 gene expression / SREBP2 gene expression / SCAP gene expression / SCD gene expression / MVD gene expression / ACACA gene expression / ACACB gene expression / ACLY gene expression / ACSS1 gene expression / ACSS2 gene expression / ELOVL6 gene expression / FASN gene expression / HMGCR gene expression: relative expression vs mock/vehicle (ΔΔCT, β-actin normalized); details: 500 nM, 48 hrs
# Protocol: Gene Expression: The effect of selected compounds described herein on the gene expression of HepG2 cells was evaluated. HepG2 cells (P2) were seeded in 24 well plate (80,000 cells/well) for RNA extraction and in a 96 well plate (10,000 cells/well) for Cell Titer Glow (CTG). The media used was DMEM and contained 10% FBS. Each compound was evaluated at […] for 48 hours. Two biological replicates per experimental group were evaluated for RNA. For gene analysis, RNA was harvested with RNEasy kit and 20-100 ng used to synthesize cDNA with random primers. Quantitative PCR was performed on 1 pg to 100 ng cDNA for the following genes: ACACA, ACLY, FASN, LSS, PNPLA3. Gene expression levels were normalized with housekeeping gene, β-Actin, and relative expression levels determined using ΔΔCT method comparing treated to mock or vehicle treated cells as a baseline. “Total” gene expression refers to the average of the values of the 5 genes listed above.
# The effect of Compound Z-725 on expression of the genes ACACA, ACACB, ACLY, ACSS1, ACSS2, ELOVL6, FASN, HMGCR, LSS, MVK, PNPLA3, SREBP1, SREBP2, SCAP, SCD, and MVD was evaluated, following the procedure described in Example 52.
# [1] = Log D by octanol/aqueous buffer partitioning; type: physicochemical; details: pH 7.4, 1-octanol/buffer
# Protocol: The Log D of selected compounds was evaluated by octanol/aqueous buffer partitioning. 500 μL of organic phase (1-octanol) was added to each well of a 2 mL deep well plate, followed by 500 μL of buffer and 15 μL of test compound in DMSO (0.15 mM). The plate was vortexed for 10 seconds and incubated at room temperature for 1 hr on a plate shaker at 200 rpm. After incubation, the samples were allowed to equilibrate for 20 min and then centrifuged at 4000 rpm for 30 min for complete phase separation. The distribution of test compound in buffer and octanol phase was analyzed by HPLC-UV. Log D=Log (Area of Octanol/Area of Buffer).
structure (smiles),measurement,setting,value
CC(C)(C)c1cc(-c2cncc(-c3ccc(C(=O)N4CCC(O)CC4)cc3Cl)c2)ccn1 [Compound Z-725],ACACA gene expression,HepG2 cells,0.4399
same,ACACB gene expression,HepG2 cells,0.5472
same,ACLY gene expression,HepG2 cells,0.3505
same,ACSS1 gene expression,HepG2 cells,0.2838
same,ACSS2 gene expression,HepG2 cells,0.4792
same,ELOVL6 gene expression,HepG2 cells,0.4432
same,FASN gene expression,HepG2 cells,0.2957
same,HMGCR gene expression,HepG2 cells,0.09282
same,LSS gene expression,HepG2 cells,0.2412
same,MVD gene expression,HepG2 cells,0.1984
same,MVK gene expression,HepG2 cells,0.05926
same,PNPLA3 gene expression,HepG2 cells,0.09989
same,SCAP gene expression,HepG2 cells,1.312
same,SCD gene expression,HepG2 cells,0.2009
same,SREBP1 gene expression,HepG2 cells,0.5489
same,SREBP2 gene expression,HepG2 cells,0.786
same,LogD,[1],3.56
